Among the data in patent US12404285B2, “KRAS G12D proteolysis targeting chimeras” (PAQ Therapeutics Inc., priority 2022, dated 2025) are DC50 values, retold here.

SMILES strings stand for the structures.

In the experiment the target is T1, KRAS (G12D)-HiBit in AsPc-1-KRAS (G12D)-HiBit-KI cell (Homo sapiens, UniProt P01116, G12D).
T1 construct: host or cells: AsPc-1-KRAS (G12D)-HiBit-KI cells (knock-in line)
T1 sequence (P01116 1-188 isoform P01116-2 G12D): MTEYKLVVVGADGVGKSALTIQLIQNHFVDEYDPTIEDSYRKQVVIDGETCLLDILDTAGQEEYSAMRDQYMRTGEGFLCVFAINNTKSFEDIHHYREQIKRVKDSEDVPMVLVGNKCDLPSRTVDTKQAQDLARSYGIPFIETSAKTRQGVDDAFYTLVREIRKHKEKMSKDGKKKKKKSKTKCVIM
The experiment is described as follows: G12D HiBit assay. The experiment is classed as cell-based. Particulars: 24 hours compound treatment, absolute DC50, read-out: Average PHA DC50. The protocol: Day 1. Prepared the culture medium for AsPc-1-KRAS (G12D)-HiBit-KI cell (Pharmaron) using RPMI 1640 medium (Gibco, 11875093) with 10% FBS (Gibco, 10099141C) and 1% Penicillin-Streptomycin Liquid (Solarbio, P1400). Cultivated cells in T-75 flasks in a cell culture incubator (Thermo, Model: 371) at 37° C., 5% CO2. Allowed cells to reach approximately 80% confluence before splitting. Rinsed cultivated cells in T-75 flasks with 5 mL PBS (Solarbio, P1020-500). Aspirated off PBS, added 1.5 mL trypsin (Invitrogen, #25300), and incubated at 37° C. for approximately 5 minutes or until the cells detached. Inactivated trypsin by adding excessive serum containing medium. Harvested the cells from flask into cell culture medium and counted the cell number. Seeded AsPc-1-KRAS (G12D)-HiBit-KI cell into 384-well plate (Corning, 3570) (cell density: 5×10^3 cells/well in 50 μL medium) in RPMI 1640 medium and incubated overnight at 37° C. and 5% CO2.
Day 2. Test compounds were dissolved at 0.3 mM in DMSO (Solarbio, D8371) as stock solution. Transferred 45 μL of stock solution to a 384-well plate (Labcyte, 001-14555). Performed 3-fold, 10-points dilution via transferring 15 μL compound into 30 μL DMSO by using TECAN liquid handler (TECAN, Freedom EVO200). The compound plates were spin at room temperature at 1,000 RPM for 1 minute (Eppendorf, 5810R). Transferred 50 nL of diluted compounds from compound source plate into the cell plate by Echo (Labcyte, 550) to achieve final concentrations of 300 nM, 100 nM, 33.3 nM, 11.1 nM, 3.7 nM, 1.23 nM, 0.41 nM, 0.14 nM, 0.046 nM and 0.015 nM, then mixed the cell plate on a plate shaker (Yoning, WZ-4) for 15 seconds at 900 rpm. After compound treatment for 24 hours, removed the plate from incubators and equilibrated at room temperature for 15 minutes. Prepared the HiBit reagent (Promega, N3040) by mixing 10 mL of Nano-Glo®-HiBiT Lytic Buffer with 200 μL of Nano-Glo®-HiBiT Lytic Substrate and 100 μL of LgBiT Protein. Added 20 μL of HiBit reagent into each well of the cell plate and spun the plates at room temperature at 1,000 RPM for 1 minute. Then shook the plates at 600 RPM at room temperature for 20 minutes using a plate shaker (Yoning, WZ-4), and read the luminescence by EnVision (PerkinElmer, 2105-0020).
The inhibition activity was calculated using the following formula: HiBit-G12D level (%)=100%×[Luminescence(Sample)/Mean of Luminescence (HC)] where HC (high control) is obtained from cells treated with 0.1% DMSO only.
Absolute DC50 was calculated by fitting the curve using GraphPad Prism v8.0.2 (analyis 263): Y=Bottom+(100−Bottom)/(1+10^(Log AbsoluteIC50−X)*HillSlope+log((100−Bottom)/(50−Bottom)−1)))
The data are reported in Table 3, wherein “+++”=DC50 less than 100 nM, “++”=DC50 greater than or equal to 100 nM and less than 300 nM; “+”=DC50 greater than or equal to 300 nM.
(In general: The HiBiT peptide binds its large partner to form an active luciferase.)
In the case of `C#Cc1c(F)ccc2cccc(-c3ncc4c(N5CC6CCC(C5)N6)nc(OC[C@@]56CCCN5[C@H](COC(=O)N5CCC(CN7CC(Oc8cccc9c8n(C)c(=O)n9C8CCC(=O)NC8=O)C7)CC5)CC6)nc4c3F)c12` (stereo partly drawn) [Compound 100, [(3S,8S)-8-[[4-(3,8-diazabicyclo[3.2.1]octan-3-yl)-7-(8-ethynyl-7-fluoro-1-naphthyl)-8-fluoro-pyrido[4,3-d]pyrimidin-2-yl]oxymethyl]-1,2,3,5,6,7-hexahydropyrrolizin-3-yl]methyl 4-[[3-[1-(2,6-dioxo-3-piperidyl)-3-methyl-2-oxo-benzimidazol-4-yl]oxyazetidin-1-yl]methyl]piperidine-1-carboxylate], the DC50 was below 0.1 µM.
Take `C#Cc1c(F)ccc2cccc(-c3ncc4c(N5CC6CCC(C5)N6)nc(OC[C@@]56CCCN5[C@H](COC(=O)N5CCC(CN7CCN(c8ccc9c(c8)n(C)c(=O)n9C8CCC(=O)NC8=O)CC7)CC5)CC6)nc4c3F)c12` (stereo partly shown) [Compound 106]: the DC50 was below 0.1 µM.
For the molecule `C#Cc1c(F)ccc2cccc(-c3ncc4c(N5CC6CCC(C5)N6)nc(OC[C@@]56CCCN5[C@H](COC(=O)N5CCC(C7CCN(c8cccc9c8n(C)c(=O)n9C8CCC(=O)NC8=O)CC7)CC5)CC6)nc4c3F)c12` (stereo partly drawn) [Compound 127, [(3S,8S)-8-[[4-(3,8-Diazabicyclo[3.2.1]octan-3-yl)-7-(8-ethynyl-7-fluoro-1-naphthyl)-8-fluoro-pyrido[4,3-d]pyrimidin-2-yl]oxymethyl]-1,2,3,5,6,7-hexahydropyrrolizin-3-yl]methyl 4-[1-[1-(2,6-dioxo-3-piperidyl)-3-methyl-2-oxo-benzimidazol-4-yl]-4-piperidyl]piperidine-1-carboxylate], the DC50 was at least 0.3 µM.
With `C#Cc1c(F)ccc2cccc(-c3ncc4c(N5CC6CCC(C5)N6)nc(OC[C@@]56CCCN5[C@H](COC(=O)N5CC7CCC(C5)C7CN5CCC(c7ccc8c(c7)n(C)c(=O)n8C7CCC(=O)NC7=O)CC5)CC6)nc4c3F)c12` (stereo partly drawn) [Compound 103, [(3S,8S)-8-[[4-(3,8-Diazabicyclo[3.2.1]octan-3-yl)-7-(8-ethynyl-7-fluoro-1-naphthyl)-8-fluoro-pyrido[4,3-d]pyrimidin-2-yl]oxymethyl]-1,2,3,5,6,7-hexahydropyrrolizin-3-yl]methyl8-[[4-[1-(2,6-dioxo-3-piperidyl)-3-methyl-2-oxo-benzimidazol-5-yl]-1-piperidyl]methyl]-3-azabicyclo[3.2.1]octane-3-carboxylate], the DC50 is below 0.1 µM.
To `C#Cc1c(F)ccc2cccc(-c3ncc4c(N5CC6CCC(C5)N6)nc(OC[C@@]56CCCN5[C@H](COC(=O)N5CC7(CCN(c8cccc9c8n(C)c(=O)n9C8CCC(=O)NC8=O)CC7)C5)CC6)nc4c3F)c12` (stereo partly drawn) [Compound 121, [(3S,8S)-8-[[4-(3,8-Diazabicyclo[3.2.1]octan-3-yl)-7-(8-ethynyl-7-fluoro-1-naphthyl)-8-fluoro-pyrido[4,3-d]pyrimidin-2-yl]oxymethyl]-1,2,3,5,6,7-hexahydropyrrolizin-3-yl]methyl 7-[1-(2,6-dioxo-3-piperidyl)-3-methyl-2-oxo-benzimidazol-4-yl]-2,7-diazaspiro[3.5]nonane-2-carboxylate] belongs at least 0.3 µM; to `C#Cc1c(F)ccc2cccc(-c3ncc4c(N5CC6CCC(C5)N6)nc(OC[C@@]56CCCN5[C@H](COC(=O)NCCCC(=O)N5CCC(c7ccc8c(c7)n(C)c(=O)n8C7CCC(=O)NC7=O)CC5)CC6)nc4c3F)c12` (stereo partly shown) [Compound 45], at least 0.3 µM.
In the case of `C#Cc1c(F)ccc2cccc(-c3ncc4c(N5CC6CCC(C5)N6)nc(OC[C@@]56CCCN5[C@H](COC(=O)N5CCC7(CC5)CC(CCc5ccc8c(c5)n(C)c(=O)n8C5CCC(=O)NC5=O)C7)CC6)nc4c3F)c12` (stereo partly shown) [Compound 67], the DC50 was below 0.1 µM.
`C#Cc1c(F)ccc2cccc(-c3ncc4c(N5CC6CCC(C5)N6)nc(OC[C@@]56CCCN5[C@H](COC(=O)N5CCC(OCCCCCc7cccc8c7n(C)c(=O)n8C7CCC(=O)NC7=O)CC5)CC6)nc4c3F)c12` (stereo partly drawn) [Compound 122, [(3S,8S)-8-[[4-(3,8-diazabicyclo[3.2.1]octan-3-yl)-7-(8-ethynyl-7-fluoro-1-naphthyl)-8-fluoro-pyrido[4,3-d]pyrimidin-2-yl]oxymethyl]-1,2,3,5,6,7-hexahydropyrrolizin-3-yl]methyl4-[5-[1-(2,6-dioxo-3-piperidyl)-3-methyl-2-oxo-benzimidazol-4-yl]pentoxy]piperidine-1-carboxylate]: the DC50 was below 0.1 µM.
For `C#Cc1c(F)ccc2cccc(-c3ncc4c(N5CC6CCC(C5)N6)nc(OC[C@@]56CCCN5[C@H](COC(=O)N5CCN(CCC7CCN(Cc8ccc9c(c8)n(C)c(=O)n9C8CCC(=O)NC8=O)CC7)CC5)CC6)nc4c3F)c12` (stereo partly drawn) [Compound 88, [(3S,8S)-8-[[4-(3,8-Diazabicyclo[3.2.1]octan-3-yl)-7-(8-ethynyl-7-fluoro-1-naphthyl)-8-fluoro-pyrido[4,3-d]pyrimidin-2-yl]oxymethyl]-1,2,3,5,6,7-hexahydropyrrolizin-3-yl]methyl 4-[2-[1-[[1-(2,6-dioxo-3-piperidyl)-3-methyl-2-oxo-benzimidazol-5-yl]methyl]-4-piperidyl]ethyl]piperazine-1-carboxylate], the DC50 is below 0.1 µM.
Regarding `CCc1c(F)ccc2cc(O)cc(-c3ncc4c(N5CCCC6(CCO6)C5)nc(OC[C@@]56CCCN5[C@H](COC(=O)N5CCC(OCCCc7cccc8c7n(C)c(=O)n8C7CCC(=O)NC7=O)CC5)CC6)nc4c3F)c12` (stereo partly shown) [Compound 34], the DC50 was below 0.1 µM.
`C#Cc1c(F)ccc2cccc(-c3ncc4c(N5CC6CCC(C5)N6)nc(OC[C@@]56CCCN5[C@H](COC(=O)N5CCC(CCn7cc(-c8cccc9c8n(C)c(=O)n9C8CCC(=O)NC8=O)nn7)CC5)CC6)nc4c3F)c12` (stereo partly drawn) [Compound 97, [(3S,8S)-8-[[4-(3,8-Diazabicyclo[3.2.1]octan-3-yl)-7-(8-ethynyl-7-fluoro-1-naphthyl)-8-fluoro-pyrido[4,3-d]pyrimidin-2-yl]oxymethyl]-1,2,3,5,6,7-hexahydropyrrolizin-3-yl]methyl4-[2-[4-[1-(2,6-dioxo-3-piperidyl)-3-methyl-2-oxo-benzimidazol-4-yl]triazol-1-yl]ethyl]piperidine-1-carboxylate]: the DC50 is below 0.1 µM.
For `C#Cc1c(F)ccc2cccc(-c3ncc4c(N5CC6CCC(C5)N6)nc(OC[C@@]56CCCN5[C@H](COC(=O)N5CCC(CCCCc7cccc8c7n(C)c(=O)n8C7CCC(=O)NC7=O)CC5)CC6)nc4c3F)c12` (stereo partly shown) [Compound 41] the value was at least 0.3 µM.
Regarding `C#Cc1c(F)ccc2cccc(-c3ncc4c(N5CC6CCC(C5)N6)nc(OC[C@@]56CCCN5[C@H](COC(=O)N5CC[C@H](CN7CCC(c8ccc9c(c8)n(C)c(=O)n9C8CCC(=O)NC8=O)CC7)C5)CC6)nc4c3F)c12` (stereo partly shown) [Compound 80], the DC50 was below 0.1 µM.
`C#Cc1c(F)ccc2cccc(-c3ncc4c(N5CC6CCC(C5)N6)nc(OC[C@@]56CCCN5[C@H](COC(=O)N5CCC(OC7CCN(Cc8cccc9c8n(C)c(=O)n9C8CCC(=O)NC8=O)CC7)CC5)CC6)nc4c3F)c12` (stereo partly drawn) [Compound 130, [(3S,8S)-8-[[4-(3,8-Diazabicyclo[3.2.1]octan-3-yl)-7-(8-ethynyl-7-fluoro-1-naphthyl)-8-fluoro-pyrido[4,3-d]pyrimidin-2-yl]oxymethyl]-1,2,3,5,6,7-hexahydropyrrolizin-3-yl]methyl4-[[1-[[1-(2,6-dioxo-3-piperidyl)-3-methyl-2-oxo-benzimidazol-4-yl]methyl]-4-piperidyl]oxy]piperidine-1-carboxylate]: the DC50 was below 0.1 µM.
`C#Cc1c(F)ccc2cccc(-c3ncc4c(N5CC6CCC(C5)N6)nc(OC[C@@]56CCCN5[C@H](COC(=O)N5CCC(CCC7CCN(Cc8cccc9c8n(C)c(=O)n9C8CCC(=O)NC8=O)CC7)CC5)CC6)nc4c3F)c12` (stereo partly shown) [Compound 49]: the DC50 is at least 0.3 µM.
Consider `C#Cc1c(F)ccc2cccc(-c3ncc4c(N5CC6CCC(C5)N6)nc(OC[C@@]56CCCN5[C@H](COC(=O)N5CCC(CC7CCN(Cc8ccc9c(c8)n(C)c(=O)n9C8CCC(=O)NC8=O)CC7)CC5)CC6)nc4c3F)c12` (stereo partly shown) [Compound 47], for which the DC50 is below 0.1 µM.
